According to US6797720B2, “1,3,4-oxadiazoline derivative and an agent comprising its derivative as active ingredient” (ONO Pharmaceutical Co., Ltd., priority 1999, dated 2004):

Key:
Assay type in all cases: biochemical
cathepsin L = cathepsin L (Homo sapiens, UniProt P07711); test: Measurement of cathepsin L inhibitory activity
Method: (iv) Measurement of Cathepsin L Inhibitory Activity
Synthesized substrate of several concentrations (carbobenzoxy-L-phenylalanyl-L-arguine-4-methyl-chromanyl-7-amide or L-prolyl-L-phenylalanyl-L-arguinine-4-methyl-chromanyl-7-amide) solution (5 μL), cysteine protease inhibitor solution (5 μL) of several concentrations, cathepsin L enzyme reaction buffer (400 mmol/L acetic acid, 4 mmol/L EDTA, 8 mmol/L DTT were mixed to adjust to pH 5.5) 80 μL and cathepsin L enzyme solution (10 μL) were mixed and the increase of fluorescence intensity was measured (λex=355 nm, λem=460 nm) when reacted at 37° C.

cathepsin B = cathepsin B (Homo sapiens, UniProt P07858); test: Measurement of cathepsin B inhibitory activity
Method: (ii) Measurement of Cathepsin B Inhibitory Activity
Synthesized substrate of several concentrations (carbobenzoxy-L-arginyl-L-arginine-4-methyl-chromanyl-7-amide or carbobenzoxy-L-phenylalanyl-L-arginine-4-methyl-chromanyl-7-amide) solution (10 μL), cysteine protease inhibitor solution of several concentrations (10 μL), cathepsin B enzyme reaction buffer (mixture of 400 mmol/L in acetic acid, 4 mmol/L EDTA, 8 mmol/L DDT to adjust to pH 5.5) 70 μL and cathepsin B enzyme solution 10 μL were mixed and the increase of fluorescence intensity was measured (λex=355 nm, λem=460 nm) when reacted at 37° C.

cathepsin S = cathepsin S (Homo sapiens, UniProt P25774); test: Measurement of cathepsin S inhibitory activity
Method: (iii) Measurement of Cathepsin S Inhibitory Activity
Synthesized substrate of several concentrations (carbobenzoxy-L-leucyl-L-leucyl-L-arguinine-4-methyl-chroman yl-7-amide) solution (10 μL), cysteine protease inhibitor solution (5 μL) of several concentrations, cathepsin S enzyme reaction buffer (100 mmol/L sodium phosphate, 2 mmol/L EDTA, 2 mmol/L DTT were mixed to adjust to pH 6.5) (75 μL) and cathepsin S enzyme solution (10 μL) were mixed and the increase of fluorescence intensity was measured (λex=355 nm, λem=460 nm) when reacted at 37° C.

cathepsin K = target: T1, cathepsin K (Homo sapiens, UniProt P43235); test: Measurement of cathepsin K inhibitory activity; settings: Dixon plot, pH 5.5, 37° C.
T1 sequence (P43235 115-329): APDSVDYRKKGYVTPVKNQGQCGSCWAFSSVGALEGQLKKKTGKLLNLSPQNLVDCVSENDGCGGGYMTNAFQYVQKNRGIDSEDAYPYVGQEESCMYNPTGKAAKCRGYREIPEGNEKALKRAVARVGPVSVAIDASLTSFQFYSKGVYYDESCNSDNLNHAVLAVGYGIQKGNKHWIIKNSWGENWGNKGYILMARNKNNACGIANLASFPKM
Method: (i) Measurement of Cathepsin K Inhibitory Activity
Cathepsin K enzyme reaction buffer (50 mmol/L 2-(N-morpholino)ethanesulfonate, 2 mmol/L ethylenediamine tetraacetate (EDTA) and 4 mmol/L dithiothreitol (DTT) were mixed to adjust to pH 5.5) (65 μL), cysteine protease inhibitor solution (5 μL) of several concentrations, synthesized substrate (t-butyloxycarbonyl-L-alanyl-glycyl-L-prolyl-L-arginine-4-me thyl-chromanyl-7-amide) solution (20 μL) of several concentrations and cathepsin K enzyme solution (10 μL) were mixed and the increase of fluorescence intensity when reacted at 37° C. was measured (λex(excitation wavelength)355 nm, λem (fluorescence wavelength) 460 nm). As to the substrate and the compound of the present invention, enzyme reactions were carried out in combination of several appropriate concentrations, Dixon plotting was prepared, to define the absolute value of X-coordinate of the intersection point of the graph as Ki value.

Chain of cathepsin L (P07711 114-333, species assumed): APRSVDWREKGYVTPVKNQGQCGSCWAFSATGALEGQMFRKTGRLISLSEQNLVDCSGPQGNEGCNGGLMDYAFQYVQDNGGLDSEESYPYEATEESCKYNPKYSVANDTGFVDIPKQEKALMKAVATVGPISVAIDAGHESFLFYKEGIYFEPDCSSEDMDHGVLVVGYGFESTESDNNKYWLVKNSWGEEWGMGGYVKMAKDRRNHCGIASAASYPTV
Chain of cathepsin S (P25774 115-331, species assumed): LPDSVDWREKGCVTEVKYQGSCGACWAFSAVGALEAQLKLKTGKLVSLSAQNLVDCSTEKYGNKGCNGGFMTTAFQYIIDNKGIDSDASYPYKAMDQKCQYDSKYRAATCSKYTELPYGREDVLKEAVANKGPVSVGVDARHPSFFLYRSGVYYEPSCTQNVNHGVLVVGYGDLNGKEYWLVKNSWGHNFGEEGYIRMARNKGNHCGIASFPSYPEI

| Structure (SMILES) | inhibition at 1 µM (cathepsin L) | inhibition at 1 µM (cathepsin B) | inhibition at 1 µM (cathepsin S) | Ki (cathepsin K) |
| --- | --- | --- | --- | --- |
| CC(C)C[C@H](NC(=O)OCc1ccccc1)C(=O)N[C@@H](CC(C)C)C(=O)c1n[nH]c(=O)o1 [Example 1 (1), (2S)-N-[(2S)-4-methyl-1-oxo-1-(2-oxo-1,3,4-oxadiazolin-5-yl)-2-pentyl]-4-methyl-2-(benzyloxycarbonylamino)pentanamide] | 100% | 97% | 99% | 13 nM |
| CC(C)C[C@H](NC(=O)[C@@H]1CCCC[C@@H]1NC(=O)c1ccccc1)C(=O)c1n[nH]c(=O)o1 [example 1] | – | – | – | 86 nM |
